Reference: the supplement of paper PMC10307832

Legend:
Assay in all cases: relative viability (nuclei count vs DMSO), 5 days (fraction); higher = more cells survive
Vandetanib + Tozasertib = compound: COc1cc2/c(=N/c3ccc(Br)cc3F)nc[nH]c2cc1OCC1CCN(C)CC1 [Vandetanib] + Cc1cc(Nc2cc(N3CCN(C)CC3)nc(Sc3ccc(NC(=O)C4CC4)cc3)n2)n[nH]1 [Tozasertib] (partner 0.1 µM)
Summary of the method: (§1)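 Lung cancer cell lines in 1536-well plates got either a single drug or a fixed anchor-drug dose together with five library-drug doses (not always all listed) in √10 steps, by pin tool, on the day after seeding. Nuclei were counted after 5 days, and relative viability is the treated-to-vehicle ratio of nuclei counts. Values are medians of duplicate plates.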

NVP-TAE684 + Linsitinib = compound: COc1cc(N2CCC(N3CCN(C)CC3)CC2)ccc1Nc1ncc(Cl)c(Nc2ccccc2S(=O)(=O)C(C)C)n1 [NVP-TAE684] + C[C@]1(O)C[C@@H](c2nc(-c3ccc4ccc(-c5ccccc5)nc4c3)c3c(N)nccn32)C1 [Linsitinib] (partner 1 µM)
Summary of the method: as §1

CUDC-101 + Vorinostat = compound: C#Cc1cccc(Nc2ncnc3cc(OC)c(OCCCCCCC(=O)NO)cc23)c1 [CUDC-101] + O=C(CCCCCCC(=O)Nc1ccccc1)NO [Vorinostat] (partner 1 µM)
Summary of the method: as §1

CUDC-101 + Olaparib = compound: C#Cc1cccc(Nc2ncnc3cc(OC)c(OCCCCCCC(=O)NO)cc23)c1 [CUDC-101] + O=C(c1cc(Cc2n[nH]c(=O)c3ccccc23)ccc1F)N1CCN(C(=O)C2CC2)CC1 [Olaparib] (partner 8 µM)
Summary of the method: as §1

Cell Line	relative viability (Vandetanib + Tozasertib; first compound 0.02 µM)	relative viability (Vandetanib + Tozasertib; first compound 0.06325 µM)	relative viability (Vandetanib + Tozasertib; first compound 0.2 µM)	relative viability (Vandetanib + Tozasertib; first compound 0.6325 µM)	relative viability (Vandetanib + Tozasertib; first compound 2 µM)	relative viability (NVP-TAE684 + Linsitinib; first compound 0.2 µM)	relative viability (NVP-TAE684 + Linsitinib; first compound 0.6325 µM)	relative viability (NVP-TAE684 + Linsitinib; first compound 2 µM)	relative viability (CUDC-101 + Vorinostat; first compound 0.01 µM)	relative viability (CUDC-101 + Vorinostat; first compound 0.03162 µM)	relative viability (CUDC-101 + Vorinostat; first compound 0.1 µM)	relative viability (CUDC-101 + Vorinostat; first compound 0.3162 µM)	relative viability (CUDC-101 + Vorinostat; first compound 1 µM)	relative viability (CUDC-101 + Olaparib; first compound 0.01 µM)	relative viability (CUDC-101 + Olaparib; first compound 0.03162 µM)	relative viability (CUDC-101 + Olaparib; first compound 0.1 µM)	relative viability (CUDC-101 + Olaparib; first compound 0.3162 µM)	relative viability (CUDC-101 + Olaparib; first compound 1 µM)
HCC-827	0.442	0.419	0.415	0.243	0.135	0.978	1.01	0.973	0.929	0.835	0.168	0.156	0.14	0.718	0.302	0.157	0.221	0.123
HOP-62	0.42	0.379	0.191	0.384	0.368	0.97	0.963	0.755	0.716	0.57	0.665	0.524	0.261	0.31	0.465	0.359	0.29	0.477
IA-LM						0.386	0.503	0.627	0.997	0.915	0.93	0.797	0.586	0.768	0.871	0.74	0.86	0.46
LC-2-ad	0.471	0.462	0.467	0.45	0.357	0.842	0.771	0.218	0.721	0.716	0.703	0.658	0.538	0.719	0.69	0.698	0.699	0.608
LCLC-97TM1	0.219	0.225	0.346	0.24	0.251	0.136	0.189	0.136	0.815	0.778	0.663	0.56	0.195	0.452	0.4	0.368	0.446	0.437
LCLC-103H	0.613	0.443	0.548	0.481	0.555	1.06	1.23	1.15	0.759	0.81	0.7	0.692	0.61	0.79	0.722	0.731	0.719	0.627
LK-2	0.18	0.165	0.195	0.182	0.172	0.708	0.659	0.623	0.37	0.407	0.228	0.23	0.158	0.821	0.754	0.597	0.495	0.281
LOU-NH91	0.735	0.635	0.61	0.543	0.526	0.936	0.832	0.665	1.04	0.842	0.833	0.703	0.43	0.906	0.779	0.76	0.754	0.624
LU99A	0.253	0.33	0.251	0.261	0.3	0.614	0.558	0.445	0.529	0.477	0.452	0.389	0.219	0.259	0.24	0.233	0.192	0.105
LXF-289	0.242	0.241	0.215	0.176	0.193	0.937	1.01	0.822	0.755	0.757	0.71	0.594	0.447	1.01	1.14	1.06	1.08	0.599
NCI-H23	0.307	0.41	0.144	0.382	0.327	0.533	0.584	0.509	0.71	0.731	0.683	0.661	0.335	0.271	0.373	0.323	0.302	0.248
NCI-H522	0.588	0.57	0.593	0.621	0.597				0.758	0.769	1.09	0.921	0.779	0.674	0.624	0.7	0.693	0.529
NCI-H1299						0.915	1.02	0.909						0.964	0.953	1	0.98	0.883
NCI-H1563						1.07	1.25											
NCI-H1623	0.431	0.4	0.388	0.41	0.445													
NCI-H1648	0.515	0.492	0.569	0.657	0.318				0.631	0.378	0.333	0.225	0.22	1.19	0.762	0.665	0.748	0.294
NCI-H1650	0.354	0.24	0.146	0.378	0.374				0.532	0.352	0.517	0.615	0.41	0.926	0.667	0.744	0.867	0.578
NCI-H1703						0.862	0.932	0.588							0.389	0.489	0.662	0.428
NCI-H1792						0.451	0.509	0.504						0.495	0.379	0.381	0.407	0.278
NCI-H2170	0.75	0.733	0.796	0.685	0.764				0.809	0.821	0.77	0.859	0.549	0.643	0.625	0.576	0.583	0.386
NCI-H2342	0.592	0.552	0.463	0.461	0.493				0.737	0.663	0.773	0.685	0.703	0.425	0.487	0.44	0.513	0.432
SW 900	0.688	0.417	0.142	0.634	0.609				0.48	0.569	0.31	0.49	0.217	0.887	0.811	0.841	0.686	0.628
